These results are taken from ChEMBL document CHEMBL4804281, “STK4 inhibitors for treatment of hematologic malignancies” (2020).

The structures appear in SMILES notation. Activity calls are given as the source filed them. The rule behind the calls is not given here.

Assay [1] addresses STE20-like serine/threonine-protein kinase (Homo sapiens) (UniProt Q9H2G2). Description: Inhibition of SLK in human NCI-H929 cells at 10 uM by mass spectroscopic analysis relative to control. Format: cell-based.
In assay [2] the target is Casein kinase I isoform delta (Homo sapiens) (UniProt P48730). The assay can be described thus: Inhibition of CK1d in human NCI-H929 cells at 10 uM by mass spectroscopic analysis relative to control. It counts as cell-based.
Casein kinase I isoform delta (Homo sapiens), sequence (P48730 whole entry, looked up, canonical isoform): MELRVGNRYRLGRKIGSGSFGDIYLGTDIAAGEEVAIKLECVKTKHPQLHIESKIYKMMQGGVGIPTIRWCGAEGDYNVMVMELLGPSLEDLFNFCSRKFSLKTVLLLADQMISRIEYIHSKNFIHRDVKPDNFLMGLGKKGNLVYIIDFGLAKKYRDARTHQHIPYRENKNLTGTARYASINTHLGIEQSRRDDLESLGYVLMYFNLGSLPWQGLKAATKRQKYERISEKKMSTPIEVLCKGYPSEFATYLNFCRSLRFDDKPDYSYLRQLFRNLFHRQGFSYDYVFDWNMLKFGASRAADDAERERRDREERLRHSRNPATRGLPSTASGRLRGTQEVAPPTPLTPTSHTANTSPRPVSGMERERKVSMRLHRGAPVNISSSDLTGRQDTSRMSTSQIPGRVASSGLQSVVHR
The target in assay [3] is Mitogen-activated protein kinase kinase kinase 3 (Homo sapiens) (UniProt Q99759). Description: Inhibition of MAP3K3 in human NCI-H929 cells at 10 uM by mass spectroscopic analysis relative to control. Format: cell-based.
Mitogen-activated protein kinase kinase kinase 3 (Homo sapiens), sequence (Q99759 whole entry): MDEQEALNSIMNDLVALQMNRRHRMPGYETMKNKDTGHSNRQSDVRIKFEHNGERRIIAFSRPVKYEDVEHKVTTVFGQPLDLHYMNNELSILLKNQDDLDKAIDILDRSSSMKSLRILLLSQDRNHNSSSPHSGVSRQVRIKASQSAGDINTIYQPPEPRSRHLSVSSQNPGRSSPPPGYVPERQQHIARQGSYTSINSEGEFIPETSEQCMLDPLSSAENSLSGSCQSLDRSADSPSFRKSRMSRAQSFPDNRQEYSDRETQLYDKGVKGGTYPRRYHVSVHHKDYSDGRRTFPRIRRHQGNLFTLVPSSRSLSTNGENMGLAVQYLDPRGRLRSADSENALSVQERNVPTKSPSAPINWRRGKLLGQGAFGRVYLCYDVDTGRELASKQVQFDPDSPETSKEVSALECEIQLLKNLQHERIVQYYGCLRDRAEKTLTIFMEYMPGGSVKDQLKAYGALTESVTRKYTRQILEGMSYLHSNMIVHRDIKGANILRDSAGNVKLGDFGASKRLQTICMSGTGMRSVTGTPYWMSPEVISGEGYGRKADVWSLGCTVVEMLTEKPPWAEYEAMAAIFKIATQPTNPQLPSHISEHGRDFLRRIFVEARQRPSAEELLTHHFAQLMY
Assay [4] concerns the target Serine/threonine-protein kinase 24 (Homo sapiens) (UniProt Q9Y6E0). Description: Inhibition of MST3 in human NCI-H929 cells at 10 uM by mass spectroscopic analysis relative to control. It counts as cell-based.
For assay [5], the target named is T1, Serine/threonine-protein kinase 3 (Homo sapiens) (UniProt Q13188).
T1 sequence (whole entry): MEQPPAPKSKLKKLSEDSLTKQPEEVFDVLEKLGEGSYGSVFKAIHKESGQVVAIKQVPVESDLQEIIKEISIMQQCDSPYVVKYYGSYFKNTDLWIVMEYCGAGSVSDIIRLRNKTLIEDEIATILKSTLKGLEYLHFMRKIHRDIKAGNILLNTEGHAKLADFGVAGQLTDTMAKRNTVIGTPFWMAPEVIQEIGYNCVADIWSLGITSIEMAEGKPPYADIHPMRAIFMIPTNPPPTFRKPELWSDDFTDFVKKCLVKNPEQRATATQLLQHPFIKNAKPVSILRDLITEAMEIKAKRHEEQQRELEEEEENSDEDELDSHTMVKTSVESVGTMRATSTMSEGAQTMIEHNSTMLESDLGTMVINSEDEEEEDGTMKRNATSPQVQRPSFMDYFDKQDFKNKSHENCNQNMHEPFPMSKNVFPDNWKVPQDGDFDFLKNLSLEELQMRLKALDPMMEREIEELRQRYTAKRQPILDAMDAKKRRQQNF
Description: Inhibition of STK3 (unknown origin) using fluorescein-labelled Ser/Thr-07 peptide as substrate incubated for 1 hr in presence of ATP at Km concentration by Z-LYTE assay.

Assay [6] deals with Casein kinase I isoform epsilon (Homo sapiens) (UniProt P49674). Description: Inhibition of CK1e in human NCI-H929 cells at 10 uM by mass spectroscopic analysis relative to control. It counts as cell-based.
Casein kinase I isoform epsilon (Homo sapiens), sequence (P49674 whole entry, looked up, canonical isoform): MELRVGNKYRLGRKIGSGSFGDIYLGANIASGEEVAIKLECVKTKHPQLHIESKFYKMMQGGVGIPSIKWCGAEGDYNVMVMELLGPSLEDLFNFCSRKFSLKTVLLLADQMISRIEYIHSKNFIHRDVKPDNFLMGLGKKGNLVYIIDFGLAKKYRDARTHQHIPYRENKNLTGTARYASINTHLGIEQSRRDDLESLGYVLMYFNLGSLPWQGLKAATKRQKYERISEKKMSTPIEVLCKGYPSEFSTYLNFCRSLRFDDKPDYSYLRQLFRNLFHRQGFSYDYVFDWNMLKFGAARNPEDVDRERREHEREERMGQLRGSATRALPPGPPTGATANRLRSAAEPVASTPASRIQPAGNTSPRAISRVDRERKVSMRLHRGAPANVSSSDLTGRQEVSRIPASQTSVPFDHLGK
Assay [7] deals with Serine/threonine-protein kinase 26 (Homo sapiens) (UniProt Q9P289). Description: Inhibition of MST4 in human NCI-H929 cells at 10 uM by mass spectroscopic analysis relative to control. It counts as cell-based.
Serine/threonine-protein kinase 26 (Homo sapiens), sequence (Q9P289 2-416 limits assumed): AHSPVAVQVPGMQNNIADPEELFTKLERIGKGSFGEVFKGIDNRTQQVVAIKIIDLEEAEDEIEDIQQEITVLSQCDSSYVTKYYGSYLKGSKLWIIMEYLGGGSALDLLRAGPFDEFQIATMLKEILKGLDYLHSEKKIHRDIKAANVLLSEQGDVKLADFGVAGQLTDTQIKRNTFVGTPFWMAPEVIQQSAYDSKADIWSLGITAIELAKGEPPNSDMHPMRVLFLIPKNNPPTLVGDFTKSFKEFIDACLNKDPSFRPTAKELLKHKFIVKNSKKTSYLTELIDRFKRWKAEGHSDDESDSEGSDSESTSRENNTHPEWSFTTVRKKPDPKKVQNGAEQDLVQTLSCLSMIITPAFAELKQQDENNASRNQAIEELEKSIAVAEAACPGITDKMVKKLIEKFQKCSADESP
In assay [8] the target is Interleukin-1 receptor-associated kinase 1 (Homo sapiens) (UniProt P51617). The assay can be described thus: Inhibition of IRAK1 in human NCI-H929 cells at 10 uM by mass spectroscopic analysis relative to control. Format: cell-based.
The target in assay [9] is Tyrosine-protein kinase ABL2 (Homo sapiens) (UniProt P42684). The assay can be described thus: Inhibition of ARG in human NCI-H929 cells at 10 uM by mass spectroscopic analysis relative to control. It counts as cell-based.
Tyrosine-protein kinase ABL2 (Homo sapiens), sequence (P42684 whole entry, canonical isoform): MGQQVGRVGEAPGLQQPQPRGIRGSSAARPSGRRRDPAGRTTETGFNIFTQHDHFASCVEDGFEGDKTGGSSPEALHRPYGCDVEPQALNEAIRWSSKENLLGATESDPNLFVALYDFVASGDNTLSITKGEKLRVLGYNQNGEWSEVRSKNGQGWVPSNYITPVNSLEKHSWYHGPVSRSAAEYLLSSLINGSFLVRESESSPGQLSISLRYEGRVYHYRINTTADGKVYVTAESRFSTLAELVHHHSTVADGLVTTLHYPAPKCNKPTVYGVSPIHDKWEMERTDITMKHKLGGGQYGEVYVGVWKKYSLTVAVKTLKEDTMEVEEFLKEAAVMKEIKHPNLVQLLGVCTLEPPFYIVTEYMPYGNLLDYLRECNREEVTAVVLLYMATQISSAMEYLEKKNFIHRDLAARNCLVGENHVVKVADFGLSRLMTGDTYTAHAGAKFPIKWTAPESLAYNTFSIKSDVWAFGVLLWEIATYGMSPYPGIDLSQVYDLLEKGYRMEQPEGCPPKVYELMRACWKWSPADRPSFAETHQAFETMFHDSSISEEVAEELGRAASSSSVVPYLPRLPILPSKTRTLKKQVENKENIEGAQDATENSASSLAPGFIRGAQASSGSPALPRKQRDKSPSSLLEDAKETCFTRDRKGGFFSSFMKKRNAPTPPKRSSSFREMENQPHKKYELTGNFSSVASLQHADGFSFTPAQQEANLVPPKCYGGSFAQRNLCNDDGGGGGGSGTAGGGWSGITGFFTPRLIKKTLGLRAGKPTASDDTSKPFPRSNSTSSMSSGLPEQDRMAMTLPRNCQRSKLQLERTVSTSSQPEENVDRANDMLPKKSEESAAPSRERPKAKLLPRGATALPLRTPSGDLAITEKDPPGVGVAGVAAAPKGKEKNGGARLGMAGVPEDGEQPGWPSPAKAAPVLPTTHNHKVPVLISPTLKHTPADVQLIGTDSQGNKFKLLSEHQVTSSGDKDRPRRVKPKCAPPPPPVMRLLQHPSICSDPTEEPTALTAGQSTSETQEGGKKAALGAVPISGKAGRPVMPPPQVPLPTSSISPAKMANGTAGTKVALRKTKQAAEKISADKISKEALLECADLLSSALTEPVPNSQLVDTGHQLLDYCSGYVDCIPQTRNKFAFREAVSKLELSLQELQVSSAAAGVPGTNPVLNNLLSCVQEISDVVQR
The target of assay [10] is Casein kinase I isoform gamma-2 (Homo sapiens) (UniProt P78368). Description: Inhibition of CK1g2 in human NCI-H929 cells at 10 uM by mass spectroscopic analysis relative to control. It counts as cell-based.
Casein kinase I isoform gamma-2 (Homo sapiens), sequence (P78368 whole entry, looked up, canonical isoform): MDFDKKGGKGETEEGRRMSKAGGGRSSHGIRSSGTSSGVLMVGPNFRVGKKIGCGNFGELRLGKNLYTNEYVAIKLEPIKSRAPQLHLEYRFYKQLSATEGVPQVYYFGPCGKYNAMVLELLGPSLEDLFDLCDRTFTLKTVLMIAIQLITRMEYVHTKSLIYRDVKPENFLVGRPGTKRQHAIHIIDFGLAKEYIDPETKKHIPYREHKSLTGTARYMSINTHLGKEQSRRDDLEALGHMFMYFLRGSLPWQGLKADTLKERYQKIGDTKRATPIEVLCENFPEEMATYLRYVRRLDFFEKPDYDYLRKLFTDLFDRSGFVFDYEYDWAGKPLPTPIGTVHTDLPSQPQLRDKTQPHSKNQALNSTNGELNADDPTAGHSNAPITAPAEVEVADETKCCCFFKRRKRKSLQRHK
For assay [11], the target named is NUAK family SNF1-like kinase 2 (Homo sapiens) (UniProt Q9H093). The assay can be described thus: Inhibition of NuaK2 in human NCI-H929 cells at 10 uM by mass spectroscopic analysis relative to control. Format: cell-based.
The target of assay [12] is Serine/threonine-protein kinase D2 (Homo sapiens) (UniProt Q9BZL6). Description: Inhibition of PKD2 in human NCI-H929 cells at 10 uM by mass spectroscopic analysis relative to control. It counts as cell-based.
Assay [13] addresses Activin receptor type-1B (Homo sapiens) (UniProt P36896). Description: Inhibition of ALK4 in human NCI-H929 cells at 10 uM by mass spectroscopic analysis relative to control. It counts as cell-based.
Assay [14] addresses Mitogen-activated protein kinase kinase kinase kinase 1 (Homo sapiens) (UniProt Q92918). Description: Inhibition of HPK1 in human NCI-H929 cells at 10 uM by mass spectroscopic analysis relative to control. It counts as cell-based.
In assay [15] the target is Activin receptor type-1C (Homo sapiens) (UniProt Q8NER5). The assay can be described thus: Inhibition of ALK7 in human NCI-H929 cells at 10 uM by mass spectroscopic analysis relative to control. Format: cell-based.
The target in assay [16] is Phosphatidylinositol 5-phosphate 4-kinase type-2 gamma (Homo sapiens) (UniProt Q8TBX8). Description: Inhibition of PIP4K2C in human NCI-H929 cells at 10 uM by mass spectroscopic analysis relative to control. It counts as cell-based.
Assay [17] has as its target Serine/threonine-protein kinase D3 (Homo sapiens) (UniProt O94806). Description: Inhibition of PKD3 in human NCI-H929 cells at 10 uM by mass spectroscopic analysis relative to control. Format: cell-based.
The target of assay [18] is Serine/threonine-protein kinase STK11 (Homo sapiens) (UniProt Q15831). The assay can be described thus: Inhibition of LKB1 in human NCI-H929 cells at 10 uM by mass spectroscopic analysis relative to control. It counts as cell-based.
Assay [19] concerns the target Mitogen-activated protein kinase kinase kinase kinase 5 (Homo sapiens) (UniProt Q9Y4K4). The assay can be described thus: Inhibition of KHS1 in human NCI-H929 cells at 10 uM by mass spectroscopic analysis relative to control. Format: cell-based.
The target in assay [20] is Serine/threonine-protein kinase 10 (Homo sapiens) (UniProt O94804). The assay can be described thus: Inhibition of LOK in human NCI-H929 cells at 10 uM by mass spectroscopic analysis relative to control. It counts as cell-based.
Assay [21] has as its target Activin receptor type-1 (Homo sapiens) (UniProt Q04771). The assay can be described thus: Inhibition of ALK2 in human NCI-H929 cells at 10 uM by mass spectroscopic analysis relative to control. It counts as cell-based.
The target of assay [22] is Aurora kinase A (Homo sapiens) (UniProt O14965). Description: Inhibition of AURA in human NCI-H929 cells at 10 uM by mass spectroscopic analysis relative to control. It counts as cell-based.
Aurora kinase A (Homo sapiens), sequence (O14965 whole entry, the tested form may be a part): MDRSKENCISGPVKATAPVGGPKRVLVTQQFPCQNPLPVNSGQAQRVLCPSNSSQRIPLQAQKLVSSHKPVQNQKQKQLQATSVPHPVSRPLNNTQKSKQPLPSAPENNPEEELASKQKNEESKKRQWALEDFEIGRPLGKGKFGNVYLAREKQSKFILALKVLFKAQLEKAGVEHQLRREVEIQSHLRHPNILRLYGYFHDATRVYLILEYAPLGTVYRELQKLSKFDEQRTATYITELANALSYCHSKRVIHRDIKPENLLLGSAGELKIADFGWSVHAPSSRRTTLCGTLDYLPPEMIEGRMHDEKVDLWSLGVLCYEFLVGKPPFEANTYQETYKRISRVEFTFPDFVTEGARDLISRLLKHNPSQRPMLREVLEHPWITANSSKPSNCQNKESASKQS
The target in assay [23] is Ribosomal protein S6 kinase alpha-1 (Homo sapiens) (UniProt Q15418). Description: Inhibition of RSK1 domain 1 in human NCI-H929 cells at 10 uM by mass spectroscopic analysis relative to control. Format: cell-based.
Assay [24] concerns the target Serine/threonine-protein kinase SMG1 (Homo sapiens) (UniProt Q96Q15). Description: Inhibition of SMG1 in human NCI-H929 cells at 10 uM by mass spectroscopic analysis relative to control. It counts as cell-based.
For assay [25], the target named is Dual specificity protein kinase CLK2 (Homo sapiens) (UniProt P49760). The assay can be described thus: Inhibition of CLK2 in human NCI-H929 cells at 10 uM by mass spectroscopic analysis relative to control. Format: cell-based.
Assay [26] relates to NCI-H929. The assay can be described thus: Upregulation of YAP1 protein level in human NCI-H929 cells at 1 uM measured after 24 hrs by Western blot analysis. It counts as functional, cell-based. Background: In western blotting, separated proteins are transferred to a membrane and probed.
Assay [27] concerns NCI-H929. Description: Upregulation of p21 protein level in human NCI-H929 cells at 1 uM measured after 24 hrs by Western blot analysis. It counts as functional, cell-based.
Assay [28] relates to NCI-H929. The assay can be described thus: Upregulation of PUMA protein level in human NCI-H929 cells at 1 uM measured after 24 hrs by Western blot analysis. Format: functional, cell-based.

A word on the inhibition: it is the share of the control response that was lost under treatment. A word on the IC50: it is the point on the concentration scale where inhibition reaches its midpoint.

Activin receptor type-1B (Homo sapiens), sequence (P36896 whole entry): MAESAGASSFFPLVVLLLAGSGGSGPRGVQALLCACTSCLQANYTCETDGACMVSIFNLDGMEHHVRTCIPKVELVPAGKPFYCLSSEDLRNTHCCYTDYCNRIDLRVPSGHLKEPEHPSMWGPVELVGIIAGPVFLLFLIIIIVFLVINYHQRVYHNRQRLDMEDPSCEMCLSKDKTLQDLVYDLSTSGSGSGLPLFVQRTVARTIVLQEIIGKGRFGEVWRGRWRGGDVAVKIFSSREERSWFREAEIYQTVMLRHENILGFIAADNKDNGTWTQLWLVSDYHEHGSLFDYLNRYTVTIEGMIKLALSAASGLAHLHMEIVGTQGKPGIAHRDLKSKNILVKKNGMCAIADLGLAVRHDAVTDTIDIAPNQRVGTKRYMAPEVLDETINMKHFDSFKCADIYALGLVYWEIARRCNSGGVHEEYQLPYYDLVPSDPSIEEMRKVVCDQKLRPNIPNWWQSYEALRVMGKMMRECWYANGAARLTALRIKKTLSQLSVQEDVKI
Serine/threonine-protein kinase 24 (Homo sapiens), sequence (Q9Y6E0 whole entry, looked up): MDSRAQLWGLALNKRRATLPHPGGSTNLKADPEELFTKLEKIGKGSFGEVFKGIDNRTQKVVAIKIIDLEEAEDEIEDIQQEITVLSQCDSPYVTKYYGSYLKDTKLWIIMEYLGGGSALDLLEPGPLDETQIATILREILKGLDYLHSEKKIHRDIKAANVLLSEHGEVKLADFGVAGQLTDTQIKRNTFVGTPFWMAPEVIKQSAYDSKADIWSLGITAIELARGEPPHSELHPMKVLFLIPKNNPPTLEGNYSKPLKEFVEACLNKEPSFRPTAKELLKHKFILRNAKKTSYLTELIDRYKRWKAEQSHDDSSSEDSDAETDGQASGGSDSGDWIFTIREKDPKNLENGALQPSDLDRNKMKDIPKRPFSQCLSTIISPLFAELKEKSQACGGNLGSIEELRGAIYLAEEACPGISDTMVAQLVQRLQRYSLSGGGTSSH

`CN(C1CC1)S(=O)(=O)c1ccc(-c2cnc(N)c(-c3ccc4c(c3)CCNC4=O)c2)c(F)c1`: the inhibition in assay [1] is 50%; in assay [2], 50%; in assay [3], 0%; in assay [4], 50%; in assay [6], 50%; in [7] it was below 90%. Besides, the figures for the inhibition in assay [8] and in assay [9] were 50% and 0%, respectively. Also, in assay [5], the IC50 is below 40 nM.
Regarding `COc1cc(NS(=O)(=O)C2CC2)ccc1-c1cnc(N)c(-c2ccc3c(c2)CCNC3=O)c1`, the inhibition in [1] was determined as 50%; in [10], 75%; in [11], 0%; in assay [12], 50%; in assay [13], 75%; in [14] it was 0%. The inhibition in assay [15] was 75%; in [16], 75%; in assay [17], 0%; in assay [18] it was above 90%; in [19], 0%; in assay [20] it was 0%. Also, the inhibition in assay [8] was 0%; in assay [9], 0%; in assay [21], 75%.
Take `Nc1ncc(-c2ccc(NS(=O)(=O)C3CC3)cc2F)cc1-c1ccc2c(c1)CCNC2=O`: the inhibition in assay [22] is below 75%; in assay [7], below 75%; in [9] it was 0%.
For the molecule `Nc1ncc(-c2ccc(NS(=O)(=O)C3CC3)cc2OC2CCCCC2)cc1-c1ccc2c(c1)CCNC2=O`, the inhibition in assay [10] was 50%; in assay [13], above 90%; in assay [23] it was below 75%; in [15], above 90%; in assay [24], 50%; in assay [25], 50%. Besides, the inhibition is above 90% in assay [4], 50% in assay [19], 0% in assay [9] and above 90% in [21].
For the molecule `Nc1ncc(-c2cccc3ncsc23)cc1-c1ccc2c(c1)CCNC2=O`, the inhibition turned out to be 50% in assay [11]; 50% in [12]; 50% in [14]; 50% in assay [24]; 50% in [17]; 0% in assay [3]. The inhibition in assay [20] turned out to be 50%; in [7], 0%; in [9] it was 50%. The 50% inhibitory concentration (IC50) in assay [5] was found to be 40 nM.
For `Nc1ncc(-c2cccc([N+](=O)[O-])c2F)cc1-c1ccc2c(c1)CCNC2=O`, the inhibition was below 90% in assay [22]; above 90% in [2]; below 75% in assay [23]; 0% in assay [25]; above 90% in assay [6]; 0% in assay [7]. Besides, the outcome in the assay with NCI-H929 [26], with NCI-H929 [27] and with NCI-H929 [28] was Active. Also, in [5], the half-maximal inhibitory concentration (IC50) was below 40 nM.
